From ChEMBL document CHEMBL2331112, “Synthesis of novel 2-alkyl triazole-3-alkyl substituted quinoline derivatives and their cytotoxic activity” (Bioorg Med Chem Lett, 2013)
≈ marks a conversion by molar mass, not a printed value.

How the values were obtained:
Assay type in all cases: functional, cell-based
HeLa = assay: Cytotoxicity against human HeLa cells after 24 hrs by MTT assay
U-937 = assay: Cytotoxicity against human U937 cells after 24 hrs by MTT assay; settings: U-937, 24 h
COLO 205 = assay: Cytotoxicity against human COLO205 cells after 24 hrs by MTT assay; settings: COLO 205, 24 h
THP-1 = assay: Cytotoxicity against human THP1 cells after 24 hrs by MTT assay; settings: THP-1, 24 h

| SMILES | IC50 (HeLa) | IC50 (U-937) | IC50 (COLO 205) | IC50 (THP-1) |
| --- | --- | --- | --- | --- |
| CCCc1cc2ccccc2nc1-c1cn(CCC(F)(F)C(F)(F)C(F)(F)C(F)(F)C(F)(F)C(F)(F)C(F)(F)C(F)(F)F)nn1 | 37.8 µg/mL (≈ 55.2 µM) | > 100 µg/mL | > 100 µg/mL | > 100 µg/mL |
| CCCCCCCCCCn1cc(-c2nc3ccccc3cc2CC)nn1 | > 100 µg/mL | 12.7 µg/mL (≈ 34.9 µM) | > 100 µg/mL | 34.3 µg/mL (≈ 94 µM) |
| Cc1cc2ccccc2nc1-c1cn(-c2ccc(F)cc2)nn1 | > 100 µg/mL | 65.6 µg/mL (≈ 215 µM) | > 100 µg/mL | > 100 µg/mL |
| CCCCc1cc2ccccc2nc1-c1cn(CCC(F)(F)C(F)(F)C(F)(F)C(F)(F)C(F)(F)C(F)(F)C(F)(F)C(F)(F)F)nn1 | 32.8 µg/mL (≈ 47 µM) | 59.1 µg/mL (≈ 84.6 µM) | > 100 µg/mL | > 100 µg/mL |
| CCCCCc1cc2ccccc2nc1-c1cn(-c2ccc(F)cc2)nn1 | > 100 µg/mL | 67.5 µg/mL (≈ 187 µM) | > 100 µg/mL | > 100 µg/mL |
| CCCCc1cc2ccccc2nc1-c1cn(-c2ccc(F)cc2)nn1 | > 100 µg/mL | 66.2 µg/mL (≈ 191 µM) | > 100 µg/mL | 78.3 µg/mL (≈ 226 µM) |
| CCCCCCCCCCn1cc(-c2nc3ccccc3cc2CCCCC)nn1 | > 100 µg/mL | 18.2 µg/mL (≈ 44.7 µM) | > 100 µg/mL | 88 µg/mL (≈ 216 µM) |
| CCc1cc2ccccc2nc1-c1cn(CCC(F)(F)C(F)(F)C(F)(F)C(F)(F)C(F)(F)C(F)(F)C(F)(F)C(F)(F)F)nn1 | > 100 µg/mL | 55.9 µg/mL (≈ 83.4 µM) | 95.2 µg/mL (≈ 142 µM) | > 100 µg/mL |
| CCCCCCCCCCn1cc(-c2nc3ccccc3cc2CCC)nn1 | > 100 µg/mL | 26.6 µg/mL (≈ 70.2 µM) | > 100 µg/mL | > 100 µg/mL |
| CCc1cc2ccccc2nc1-c1cn(-c2ccc(F)cc2)nn1 | > 100 µg/mL | > 100 µg/mL | > 100 µg/mL | > 100 µg/mL |
| CCCCCc1cc2ccccc2nc1-c1cn(CCC(F)(F)C(F)(F)C(F)(F)C(F)(F)C(F)(F)C(F)(F)C(F)(F)C(F)(F)F)nn1 | > 100 µg/mL | > 100 µg/mL | > 100 µg/mL | > 100 µg/mL |
| CCCc1cc2ccccc2nc1-c1cn(-c2ccc(F)cc2)nn1 | > 100 µg/mL | 67.4 µg/mL (≈ 203 µM) | > 100 µg/mL | > 100 µg/mL |
| CCCCCCCCCCn1cc(-c2nc3ccccc3cc2CCCC)nn1 | > 100 µg/mL | 25.2 µg/mL (≈ 64.3 µM) | > 100 µg/mL | > 100 µg/mL |
| Cc1cc2ccccc2nc1-c1cn(CCC(F)(F)C(F)(F)C(F)(F)C(F)(F)C(F)(F)C(F)(F)C(F)(F)C(F)(F)F)nn1 | > 100 µg/mL | 56.6 µg/mL (≈ 86.2 µM) | 75.8 µg/mL (≈ 116 µM) | > 100 µg/mL |
| CCCCCCCCCCn1cc(-c2nc3ccccc3cc2C)nn1 | 28.2 µg/mL (≈ 80.4 µM) | > 100 µg/mL | 44.5 µg/mL (≈ 127 µM) | > 100 µg/mL |
| O=c1[nH]cc(F)c(=O)[nH]1 [FLUOROURACIL] | 1.28 µg/mL (≈ 9.84 µM) | 0.87 µg/mL (≈ 6.69 µM) | 4.03 µg/mL (≈ 31 µM) | 0.54 µg/mL (≈ 4.15 µM) |
